{
  "source": "patent US9587187B2",
  "about": "“Alkyl trityl phenyl ethers” (Rohm and Haas Company, priority 2013, dated 2017)",
  "assay": "Solubility studies of alkyl trityl phenyl ethers in solvents at −10° C.",
  "format": "physicochemical",
  "conditions": "freezer at −10° C., checked daily for crystallization",
  "experimental": "Solubility Studies: The solubility properties of the alkyl trityl phenyl ethers were determined by mixing 0.1 grams of test sample with 0.9 grams of solvent. The mixtures were warmed to 60° C. for a few minutes to make homogeneous solutions. The solutions were cooled back to room temperature, and then they were placed into a freezer at −10° C. The solutions were checked daily to see if crystallization had occurred. The solvents evaluated were ADVASOL 200H (mixed aromatics solvent from Advanced Aromatics), ADVASOL 200H ND (naphthalene-depleted mixed aromatics solvent from Advanced Aromatics), cyclohexanone, and o-sec-butyl phenol (OSBP).",
  "key": {"[1]": {"conditions": "10 wt.% alkyl trityl phenyl ether in 200H - OSBP (75:25, w:w)"}, "[2]": {"conditions": "10 wt.% alkyl trityl phenyl ether in 200H - cyclohexanone (75:25, w:w)"}, "[3]": {"conditions": "10 wt.% alkyl trityl phenyl ether in 200H ND - OSBP (75:25, w:w)"}, "[4]": {"conditions": "10 wt.% alkyl trityl phenyl ether in 200H ND - cyclohexanone (75:25, w:w)"}},
  "data": [
    {"smiles": "CCCCCCCCCCOc1ccc(C(c2ccccc2)(c2cccc(C)c2)c2cccc(C)c2)cc1C(C)CC", "note": "(stereo not drawn) [mmMS4-10]", "values": [
      {"measurement": "Solubility at −10° C., Days", "setting": "[1]", "value": "Soluble after 102"},
      {"measurement": "Solubility at −10° C., Days", "setting": "[2]", "value": "Soluble after 102"}
    ]},
    {"smiles": "CCCCCCOc1ccc(C(c2ccccc2)(c2ccccc2)c2ccc(C)cc2)cc1OCCCCCC", "note": "[pM3,4-6, ((3,4-Bis(hexyloxy)phenyl)(p-tolyl)methylene)dibenzene]", "values": [
      {"measurement": "Solubility at −10° C., Days", "setting": "[1]", "value": "Soluble after 76 days"},
      {"measurement": "Solubility at −10° C., Days", "setting": "[2]", "value": "Soluble after 7 days"},
      {"measurement": "Solubility at −10° C., Days", "setting": "[3]", "value": "Soluble after 76 days"},
      {"measurement": "Solubility at −10° C., Days", "setting": "[4]", "value": "Soluble after 7 days"}
    ]},
    {"smiles": "CCCCCCCCCCOc1ccc(C(c2ccccc2)(c2ccccc2)c2ccc(C)cc2)cc1C(C)CC", "note": "(stereo not drawn) [pMS4-10]", "values": [
      {"measurement": "Solubility at −10° C., Days", "setting": "10 wt.% alkyl trityl phenyl ether in 200H (ADVASOL 200H mixed aromatics solvent)", "value": "Soluble after 7 days"},
      {"measurement": "Solubility at −10° C., Days", "setting": "[1]", "value": "Soluble after 7 days"},
      {"measurement": "Solubility at −10° C., Days", "setting": "[2]", "value": "Soluble after 7 days"},
      {"measurement": "Solubility at −10° C., Days", "setting": "10 wt.% alkyl trityl phenyl ether in 200H ND (naphthalene-depleted mixed aromatics solvent)", "value": "Soluble after 7 days"},
      {"measurement": "Solubility at −10° C., Days", "setting": "[3]", "value": "Soluble after 7 days"},
      {"measurement": "Solubility at −10° C., Days", "setting": "[4]", "value": "Soluble after 7 days"}
    ]}
  ]
}
